Numbered stars: 1 amine (or outer) side, 2 acyl side, 3 side chain; on linkers, the order of the positions; unused ones are H or OH. Bridge positions count the residues as written; N and C are the ends. Square brackets hold non-standard residues; d marks the D form. Peptide text beside a SMILES is read from it. * marks the point of attachment. C20 diacid = O=C(O)CCCCCCCCCCCCCCCCCCC(=O)*; γGlu = O=C(O)[C@H](CCC(=O)[*:2])N[*:1]; Hyp = O=C(O)[C@@H]1C[C@@H](O)CN1; NMeI = CC[C@H](C)[C@H](NC)C(=O)O; Sar = CNCC(=O)O

The results in this text go back to EP3046573B1, “AMYLIN ANALOGUES” (Zealand Pharma A/S, priority 2013, dated 2015).

The target of assay [1] is T1, human amylin receptor 3 (hAMYR3) consisting of hCTR2 co-expressed with human Receptor Activity Modifying Protein 3 (hRAMP3) (Homo sapiens, UniProt O60896+P30988).
T1 construct: expressed in transfected cells
T1 sequence (P30988 25-474): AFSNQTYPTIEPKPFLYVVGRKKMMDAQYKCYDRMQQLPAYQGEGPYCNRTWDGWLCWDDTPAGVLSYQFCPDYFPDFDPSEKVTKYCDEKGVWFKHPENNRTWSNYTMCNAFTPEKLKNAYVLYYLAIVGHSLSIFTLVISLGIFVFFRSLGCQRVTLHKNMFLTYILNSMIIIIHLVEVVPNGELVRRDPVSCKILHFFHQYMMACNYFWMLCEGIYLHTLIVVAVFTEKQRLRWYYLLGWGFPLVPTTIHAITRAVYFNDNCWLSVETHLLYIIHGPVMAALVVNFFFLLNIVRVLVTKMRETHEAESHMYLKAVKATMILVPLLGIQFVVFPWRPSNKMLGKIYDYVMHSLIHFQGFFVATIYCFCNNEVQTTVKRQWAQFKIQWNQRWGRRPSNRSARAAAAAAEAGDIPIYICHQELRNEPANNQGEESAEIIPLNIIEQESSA
T1 sequence (O60896 24-148 partner): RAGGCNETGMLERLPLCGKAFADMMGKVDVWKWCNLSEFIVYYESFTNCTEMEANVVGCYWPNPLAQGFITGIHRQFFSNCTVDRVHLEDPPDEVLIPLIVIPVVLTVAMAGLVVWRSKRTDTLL
Briefly: hAMYR3 assay: induction of cAMP (AlphaScreen cAMP Assay kit) in COS7 cells expressing hAMYR3. The format is cell-based. To be noted: cAMP induction in COS7 cells expressing hAMYR3; average of a minimum of 3 determinations; read-out: hAMY R3 EC50. The text has this: The cell line COS7, originating from African Green Monkey kidney fibroblast cells, was used for establishment of the stable cell lines described below. The COS7 cellular background was used due to it being RAMP naive, and as such it provides the best available system for testing of the monomeric hCTR and different heterodimeric amylin receptor subtypes functionally generated by introduction of the individual RAMPs.
A cell line expressing the human amylin receptor 3 (hAMYR3) was generated in the COS7 cellular background as stable clones. In brief, hCTR2 (GI:4502547) and hRAMP3 (GI:118572586) were amplified by PCR using primers encoding terminal restriction sites for subcloning. The 5'-end primers additionally encoded a near Kozak consensus sequence to ensure efficient translation. The fidelity of the DNA encoding the receptor was confirmed by DNA sequencing. The PCR products encoding the receptor were subcloned into a proprietary tri-cistronic mammalian expression vector with RAMP3, hCTR2 and neomycin (G418) resistance marker. The mammalian expression vector encoding the receptor was transfected into COS7 cells by a standard liposome transfection method. 48 hours post-transfection, cells were seeded for limited dilution cloning and selected with 1 mg/ml G418 in the culture medium. After 3 weeks, surviving colonies of hAMY3R-expressing cells were picked, propagated and tested in the amylin efficacy assay as described in Example 3 below. The functional generation of the amylin receptor phenotype was verified in the efficacy assay by a left-shifted efficacy response to amylin relative to monomeric calcitonin receptor, and one hAMYR3-expressing clone was chosen for compound profiling.
In vitro activity of test peptides at the hCTR2 and hAMYR3 receptors was assessed by measuring the induction of cAMP following stimulation of the receptor by pramlintide or peptides of the invention using the AlphaScreen® cAMP Assay kit from Perkin-Elmer.
Briefly, COS7 cells expressing hCTR2 (see Example 2, above) were seeded at 30-40,000 cells per well in 96-well microtiter plates coated with 0.01 % poly-L-lysine, and grown for 1 day in culture in 100 µl growth medium [DMEM, 10% FCS, Penicillin (100 IU/ml), Streptomycin (100 µg/ml)]. On the day of analysis, growth medium was removed and the cells were washed once with 200 µl Tyrode buffer [Tyrode's Salts (9.6 g/l), 10 mM HEPES, pH 7.4]. Cells were incubated in 100 µl Tyrode buffer containing increasing concentrations of test peptides, 100 µM IBMX and 0.1% casein for 15 min at 37° C. The reaction was stopped by carefully decanting off the compound/buffer medium and replacing it with lysis/detection buffer (80 µl 0.1 % w/v BSA, 5 mM HEPES, 0.3 % v/v Tween-20 in deionized water). After incubation at room temperature for 10 min., the cAMP content of the resulting cell lysate was estimated according to the AlphaScreen® cAMP Assay manufacturer's instructions. EC50 values and relative efficacy values (in %) compared to reference peptide (Pramlintide) were estimated by computer-aided curve fitting using the 4-parameter logistic (4PL) non-linear model.
The in vitro activity results (expressed as EC50 values) for peptides of the invention and for Pramlintide (reference peptide) are summarized in Table 2, below.
(In general: Bead proximity is the source of the signal in Alpha formats.)

Assay [2] addresses T2, human calcitonin receptor (hCTR2) (Homo sapiens, UniProt P30988).
T2 construct: expressed in transfected cells
T2 sequence (P30988 25-474): T1 sequence (P30988 25-474)
Briefly: hCTR2 assay: induction of cAMP (AlphaScreen cAMP Assay kit) in COS7 cells expressing hCTR2. The format is cell-based. Conditions: cAMP induction in COS7 cells expressing hCTR2; average of a minimum of 3 determinations; read-out: hCTR2 EC50. The method, boiled down: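 cAMP induction was measured by AlphaScreen in COS7 cells stably expressing hCTR2 without RAMPs, after 15 min at 37° C with increasing peptide concentrations, 100 µM IBMX and 0.1% casein (Tyrode, pH 7.4). A 4-parameter logistic fit gave EC50 and % efficacy versus pramlintide.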

As usually defined, the EC50 is the concentration giving half of the maximal effect. For the molecule `CC[C@H](C)[C@@H](C(=O)N[C@@H](CC(C)C)C(=O)N[C@@H](CO)C(=O)N[C@@H](CO)C(=O)N[C@H](C(=O)N[C@@H](CCC(=O)O)C(=O)N[C@H](C(=O)NCC(=O)N[C@@H](CO)C(=O)N[C@@H](CCC(=O)O)C(=O)N[C@H](C(=O)N1CCC[C@H]1C(N)=O)[C@@H](C)O)C(C)C)[C@@H](C)O)N(C)C(=O)[C@H](C)NC(=O)CN(C)C(=O)[C@H](Cc1ccccc1)NC(=O)[C@H](CO)NC(=O)[C@H](CO)NC(=O)[C@H](CO)NC(=O)[C@H](CO)NC(=O)[C@H](CCCNC(=N)N)NC(=O)[C@H](Cc1c[nH]cn1)NC(=O)[C@H](CC(C)C)NC(=O)[C@H](Cc1ccccc1)NC(=O)[C@H](CCC(=O)O)NC(=O)[C@H](C)NC(=O)[C@H](CC(C)C)NC(=O)[C@H](CCCNC(=N)N)NC(=O)[C@@H]1CCCN1C(=O)[C@@H](NC(=O)[C@H](C)NC(=O)[C@@H]1CSSC[C@H](NC(=O)[C@H](CCCNC(=N)N)NC(=O)CC[C@H](NC(=O)CCCCCCCCCCCCCCCCCCC(=O)O)C(=O)O)C(=O)N[C@@H](CC(N)=O)C(=O)N[C@@H]([C@@H](C)O)C(=O)N[C@@H](C)C(=O)N[C@@H]([C@@H](C)O)C(=O)N1)[C@@H](C)O` [Compound 142, [19CD]-isoGlu-RC()NTATC()ATPRLAEFLHRSSSSF-Gly(Me)-A-Ile(Me)-LSSTEVGSETP-NH2] ({C20 diacid-γGlu}-RCNTATCATPRLAEFLHRSSSSF[Sar]A[NMeI]LSSTEVGSETP-NH2; disulfide 2-7), the EC50 in assay [1] worked out at 0.29 nM; in assay [2], 0.14 nM.
`CC[C@H](C)[C@@H](C(=O)N[C@@H](CC(C)C)C(=O)N[C@@H](CO)C(=O)N[C@@H](CO)C(=O)N[C@H](C(=O)N[C@@H](CCC(=O)O)C(=O)N[C@H](C(=O)NCC(=O)N[C@@H](CO)C(=O)N[C@@H](CCC(=O)O)C(=O)N[C@H](C(=O)N1C[C@H](O)C[C@H]1C(N)=O)[C@@H](C)O)C(C)C)[C@@H](C)O)N(C)C(=O)[C@H](C)NC(=O)CN(C)C(=O)[C@H](Cc1ccccc1)NC(=O)[C@H](CO)NC(=O)[C@H](CO)NC(=O)[C@H](CCCNC(=N)N)NC(=O)[C@H](Cc1c[nH]cn1)NC(=O)[C@H](CC(C)C)NC(=O)[C@H](Cc1ccccc1)NC(=O)[C@H](CCC(=O)O)NC(=O)[C@H](C)NC(=O)[C@H](CC(C)C)NC(=O)[C@H](CCCNC(=N)N)NC(=O)[C@H](CCC(=O)O)NC(=O)[C@@H](NC(=O)[C@H](C)NC(=O)[C@@H]1CSSC[C@H](NC(=O)[C@H](Cc2c[nH]c3ccccc23)NC(=O)CC[C@H](NC(=O)CCCCCCCCCCCCCCCCCCC(=O)O)C(=O)O)C(=O)NCC(=O)N[C@@H]([C@@H](C)O)C(=O)N[C@@H](C)C(=O)N[C@@H]([C@@H](C)O)C(=O)N1)[C@@H](C)O` [Compound 164, [19CD]-isoGlu-WC()GTATC()ATERLAEFLHRSSF-Gly(Me)-A-Ile(Me)-LSSTEVGSET-Hyp-NH2] ({C20 diacid-γGlu}-WCGTATCATERLAEFLHRSSF[Sar]A[NMeI]LSSTEVGSET[Hyp]-NH2; disulfide 2-7): the values for the concentration giving a half-maximal response (EC50) in assay [1] and in assay [2] were 0.27 nM and 0.1 nM, respectively.
The corresponding values for `CC[C@H](C)[C@@H](C(=O)N[C@@H](CC(C)C)C(=O)N[C@@H](CO)C(=O)N[C@@H](CO)C(=O)N[C@H](C(=O)N[C@@H](CCC(=O)O)C(=O)N[C@H](C(=O)NCC(=O)N[C@@H](CO)C(=O)N[C@@H](CCC(=O)O)C(=O)N[C@H](C(=O)N1C[C@H](O)C[C@H]1C(N)=O)[C@@H](C)O)C(C)C)[C@@H](C)O)N(C)C(=O)CN(C)C(=O)[C@H](Cc1ccccc1)NC(=O)[C@H](CO)NC(=O)[C@H](CO)NC(=O)[C@H](CO)NC(=O)[C@H](CO)NC(=O)[C@H](CCCNC(=N)N)NC(=O)[C@H](Cc1c[nH]cn1)NC(=O)[C@H](CC(C)C)NC(=O)[C@H](Cc1ccccc1)NC(=O)[C@H](CCC(=O)O)NC(=O)[C@H](C)NC(=O)[C@H](CC(C)C)NC(=O)[C@H](CCCNC(=N)N)NC(=O)[C@H](CCC(=O)O)NC(=O)[C@@H](NC(=O)[C@H](C)NC(=O)[C@@H]1CSSC[C@H](NC(=O)[C@H](CCCCN)NC(=O)[C@H](CCCCN)NC(=O)CC[C@H](NC(=O)CCCCCCCCCCCCCCCCCCC(=O)O)C(=O)O)C(=O)N[C@@H](CCC(=O)O)C(=O)N[C@@H]([C@@H](C)O)C(=O)N[C@@H](C)C(=O)N[C@@H]([C@@H](C)O)C(=O)N1)[C@@H](C)O` [Compound 169, [19CD]-isoGlu-KKC()ETATC()ATERLAEFLHRSSSSF-Gly(Me)-Ile(Me)-LSSTEVGSET-Hyp-NH2] ({C20 diacid-γGlu}-KKCETATCATERLAEFLHRSSSSF[Sar][NMeI]LSSTEVGSET[Hyp]-NH2; disulfide 3-8) are 0.64 nM and 3.5 nM.
In the same order, the values of `CC[C@H](C)[C@@H](C(=O)N[C@@H](CC(C)C)C(=O)N[C@@H](CO)C(=O)N[C@@H](CO)C(=O)N[C@H](C(=O)N[C@@H](CCC(=O)O)C(=O)N[C@H](C(=O)NCC(=O)N[C@@H](CO)C(=O)N[C@@H](CCC(=O)O)C(=O)N[C@H](C(=O)N1C[C@H](O)C[C@H]1C(N)=O)[C@@H](C)O)C(C)C)[C@@H](C)O)N(C)C(=O)[C@H](C)NC(=O)CN(C)C(=O)[C@H](Cc1ccccc1)NC(=O)[C@H](CO)NC(=O)[C@H](CO)NC(=O)[C@H](CO)NC(=O)[C@H](CO)NC(=O)[C@H](CCCNC(=N)N)NC(=O)[C@H](Cc1c[nH]cn1)NC(=O)[C@H](CC(C)C)NC(=O)[C@H](Cc1ccccc1)NC(=O)[C@H](CCC(=O)O)NC(=O)[C@H](C)NC(=O)[C@H](CC(C)C)NC(=O)[C@H](CCCNC(=N)N)NC(=O)[C@H](CCC(=O)O)NC(=O)[C@@H](NC(=O)[C@H](C)NC(=O)[C@@H]1CSSC[C@H](NC(=O)[C@H](CCCNC(=N)N)NC(=O)CC[C@H](NC(=O)CCCCCCCCCCCCCCCCCCC(=O)O)C(=O)O)C(=O)N[C@@H](CCC(=O)O)C(=O)N[C@@H]([C@@H](C)O)C(=O)N[C@@H](C)C(=O)N[C@@H]([C@@H](C)O)C(=O)N1)[C@@H](C)O` [Compound 170, [19CD]-isoGlu-RC()ETATC()ATERLAEFLHRSSSSF-Gly(Me)-A-Ile(Me)-LSSTEVGSET-Hyp-NH2] ({C20 diacid-γGlu}-RCETATCATERLAEFLHRSSSSF[Sar]A[NMeI]LSSTEVGSET[Hyp]-NH2; disulfide 2-7) are 0.57 nM and 0.65 nM.
